In PMC3108470 (Journal of Medicinal Chemistry, 2011):
pEC50: −log10 of the molar value.

Legend:
ΔF508-CFTR = ΔF508-CFTR (Homo sapiens, UniProt P13569, DEL508-508); test: ΔF508-CFTR potentiator assay, HS-YFP fluorescence quenching; format: cell-based; settings: for nH (Hill coefficient): FRT cells, forskolin 20 μM, Hill fit; for activity on ΔF508-CFTR: inactive up to 20 μM
[1] = system: guinea pig ileum longitudinal smooth muscle; test: Relaxant activity on K+-depolarized
guinea pig left atrium [2] = test: Negative inotropic activity in isolated left atrium driven at 1 Hz
guinea pig left atrium [3] = settings: at the highest concentration studied; cited from earlier work
guinea pig right atrium = settings: cited from earlier work; for intrinsic activity, chronotropic effect: at the highest concentration studied

| Structure (SMILES) | nH (Hill coefficient) (ΔF508-CFTR) | GPILSM relaxant potency, times less potent than nifedipine [1] | activity on ΔF508-CFTR (ΔF508-CFTR) | other results |
| --- | --- | --- | --- | --- |
| CCOC(=O)C1=C(C)NC(C)=C(C(=O)OCC)C1c1c(C(F)(F)F)nc2sccn12 [Compound 16, Diethyl 2,6-Dimethyl-4-(6-(trifluoromethyl)imidazo[2,1-b]thiazol-5-yl)-1,4-dihydropyridine-3,5-dicarboxylate] | 0.66 | about 65 times |  |  |
| COC(=O)C1=C(C)NC(C)=C(C(=O)OC)C1c1c(-c2ccc(C(F)(F)F)cc2)nc2sccn12 [Compound 17, Dimethyl 2,6-Dimethyl-4-(6-(4-(trifluoromethyl)phenyl)imidazo[2,1-b]thiazol-5-yl)-1,4-dihydropyridine-3,5-dicarboxylate] | 2.15 | about 3 times |  | negative inotropic effect, times greater than that of nifedipine (guinea pig left atrium [2]): about 2.6 times |
| CCOC(=O)C1=C(C)NC(C)=C(C(=O)OCC)C1c1c(-c2ccc(C(F)(F)F)cc2)nc2sccn12 [Compound 18, Diethyl 2,6-Dimethyl-4-(6-(4-(trifluoromethyl)phenyl)imidazo[2,1-b]thiazol-5-yl)-1,4-dihydropyridine-3,5-dicarboxylate] | 1.69 |  |  |  |
| C=CCOC(=O)C1=C(C)NC(C)=C(C(=O)OCC=C)C1c1c(-c2ccc(C(F)(F)F)cc2)nc2sc(C)c(C)n12 [Compound 19, Diallyl 4-(2,3-Dimethyl-6-(4-(trifluoromethyl)phenyl)imidazo[2,1-b]thiazol-5-yl)-2,6-dimethyl-1,4-dihydropyridine-3,5-dicarboxylate] | 1.14 |  |  | negative inotropic over chronotropic selectivity ratio (guinea pig left atrium [2]; EC50 chronotropic / EC50 inotropic): about 33 fold |
| COC(=O)C1=C(C)NC(C)=C(C(=O)OC)C1c1c(-c2ccc(OC(F)(F)F)cc2)nc2sccn12 [Compound 20, Dimethyl 2,6-Dimethyl-4-(6-(4-(trifluoromethoxy)phenyl)imidazo[2,1-b]thiazol-5-yl)-1,4-dihydropyridine-3,5-dicarboxylate] | 1.8 | about 3 times |  |  |
| C=CCOC(=O)C1=C(C)NC(C)=C(C(=O)OCC=C)C1c1c(-c2ccc(OC(F)(F)F)cc2)nc2sccn12 [Compound 21, Diallyl 2,6-Dimethyl-4-(6-(4-(trifluoromethoxy)phenyl)imidazo[2,1-b]thiazol-5-yl)-1,4-dihydropyridine-3,5-dicarboxylate] | 1.09 | about 3 times |  |  |
| CCOC(=O)C1=C(C)NC(C)=C(C(=O)OCC)C1c1c(-c2ccccc2)nc2sc(C)cn12 [Compound 22, Diethyl 2,6-Dimethyl-4-(2-methyl-6-phenylimidazo[2,1-b]thiazol-5-yl)-1,4-dihydropyridine-3,5-dicarboxylate] | 0.93 |  |  |  |
| COC(=O)C1=C(C)NC(C)=C(C(=O)OC)C1c1c(-c2ccccc2)nc2n1CCS2 [Compound 23, Dimethyl 2,6-Dimethyl-4-(6-phenyl-2,3-dihydroimidazo[2,1-b]thiazol-5-yl)-1,4-dihydropyridine-3,5-dicarboxylate] |  |  | inactive ^b |  |
| C=CCOC(=O)C1=C(C)NC(C)=C(C(=O)OCC=C)C1c1c(-c2cc(OC)ccc2OC)nc2sccn12 [Compound 24, Diallyl 4-(6-(2,5-Dimethoxyphenyl)imidazo[2,1-b]thiazol-5-yl)-2,6-dimethyl-1,4-dihydropyridine-3,5-dicarboxylate] |  |  | inactive ^b |  |
| CCOC(=O)C1=C(C)NC(C)=C(C(=O)OCC)C1c1c(Cl)nc2sc(C)cn12 [Compound 25, Diethyl 4-(6-Chloro-2-methylimidazo[2,1-b]thiazol-5-yl)-2,6-dimethyl-1,4-dihydropyridine-3,5-dicarboxylate] | 0.86 | about 65 times |  |  |
| CCOC(=O)C1=C(C)NC(C)=C(C(=O)OCC)C1c1c(-c2ccc(Cl)c(Cl)c2Cl)nc2sccn12 [Compound 26, Diethyl 2,6-Dimethyl-4-(6-(2,3,4-trichlorophenyl)imidazo[2,1-b]thiazol-5-yl)-1,4-dihydropyridine-3,5-dicarboxylate] | 0.44 | about 65 times |  |  |
| COC(=O)C1=C(C)NC(C)=C(C(=O)OC)C1c1c(C(F)(F)F)nc2sccn12 [Compound 27] | 1.89 |  |  |  |
| COC(=O)C1=C(C)NC(C)=C(C(=O)OC)C1c1c(C(F)(F)F)nc2sc(C)cn12 [Compound 28] | 0.88 | about 65 times |  | intrinsic activity, inotropic effect (guinea pig left atrium [3]): less than 50%; intrinsic activity, chronotropic effect (guinea pig right atrium): < 40% |
| COC(=O)C1=C(C)NC(C)=C(C(=O)OC)C1c1c(C)nc2sc(Cl)cn12 [Compound 29] | 1.55 |  |  | negative inotropic effect, times greater than that of nifedipine (guinea pig left atrium [2]): about 2.6 times |
| COC(=O)C1=C(C)NC(C)=C(C(=O)OC)C1c1c(C)nc2sc(C)cn12 [Compound 30] |  |  | inactive ^b | intrinsic activity, inotropic effect (guinea pig left atrium [3]): less than 50%; intrinsic activity, chronotropic effect (guinea pig right atrium): < 40% |
| COC(=O)C1=C(C)NC(C)=C(C(=O)OC)C1c1c(Cl)nc2sc(Cl)cn12 [Compound 31] | 1.04 |  |  | negative inotropic effect, times greater than that of nifedipine (guinea pig left atrium [2]): about 2.6 times |
| COC(=O)C1=C(C)NC(C)=C(C(=O)OC)C1c1c(Cl)nc2sc(C)cn12 [Compound 32] |  |  | inactive ^b |  |
| COC(=O)C1=C(C)NC(C)=C(C(=O)OC)C1c1c(Cl)nc2scc(C)n12 [Compound 33] | 0.82 |  |  | negative inotropic effect, times greater than that of nifedipine (guinea pig left atrium [2]): about 2.6 times |

| Structure (SMILES) | nH (Hill coefficient) (ΔF508-CFTR) | GPILSM relaxant potency, times less potent than nifedipine [1] | activity on ΔF508-CFTR (ΔF508-CFTR) | other results |
| --- | --- | --- | --- | --- |
| COC(=O)C1=C(C)NC(C)=C(C(=O)OC)C1c1c(Cl)nc2sc(C)c(C)n12 [Compound 34] | 1.32 |  |  |  |
| COC(=O)C1=C(C)NC(C)=C(C(=O)OC)C1c1c(-c2ccccc2OC)nc2sccn12 [Compound 35] |  |  | inactive ^b |  |
| COC(=O)C1=C(C)NC(C)=C(C(=O)OC)C1c1c(-c2cccc(OC)c2)nc2sccn12 [Compound 36] | 1.5 | about 65 times |  |  |
| COC(=O)C1=C(C)NC(C)=C(C(=O)OC)C1c1c(-c2ccccc2OC(F)(F)F)nc2sccn12 [Compound 37] |  |  | inactive ^b |  |
| COC(=O)C1=C(C)NC(C)=C(C(=O)OC)C1c1c(-c2cccc(OC(F)(F)F)c2)nc2sccn12 [Compound 38] | 0.81 | about 65 times |  |  |
| COC(=O)C1=C(C)NC(C)=C(C(=O)OC)C1c1c(-c2cccc(C(F)(F)F)c2)nc2sccn12 [Compound 39] | 1.01 | about 65 times |  |  |
| COC(=O)C1=C(C)NC(C)=C(C(=O)OC)C1c1c(-c2cc(OC)ccc2OC)nc2sc(C)cn12 [Compound 40] |  |  | inactive ^b |  |
| COC(=O)C1=C(C)NC(C)=C(C(=O)OC)C1c1c(-c2cc(OC)ccc2OC)nc2sc(Cl)cn12 [Compound 41] |  |  | inactive ^b |  |
| CCc1cn2c(C3C(C(=O)OC)=C(C)NC(C)=C3C(=O)OC)c(-c3cc(OC)ccc3OC)nc2s1 [Compound 42] |  |  | inactive ^b |  |
| COC(=O)C1=C(C)NC(C)=C(C(=O)OC)C1c1c(-c2ccc(OC)c(OC)c2)nc2sccn12 [Compound 43] |  |  | inactive ^b |  |
| COC(=O)C1=C(C)NC(C)=C(C(=O)OC)C1c1c(-c2cc(OC)c(OC)c(OC)c2)nc2sc(Cl)cn12 [Compound 44] |  |  | inactive ^b | intrinsic activity, inotropic effect (guinea pig left atrium [3]): less than 50%; intrinsic activity, chronotropic effect (guinea pig right atrium): < 40% |
| COC(=O)C1=C(C)NC(C)=C(C(=O)OC)C1c1c(-c2cc(OC)c([N+](=O)[O-])cc2OC)nc2sc(Cl)cn12 [Compound 45] |  | about 65 times | inactive ^b | pEC50 (guinea pig right atrium; read-out: EC50 of chronotropic negative activity, Probit analysis, ref RS1): 4.73 |
| COC(=O)C1=C(C)NC(C)=C(C(=O)OC)C1c1c(-c2c(OC)ccc(OC)c2[N+](=O)[O-])nc2sccn12 [Compound 46] |  |  | inactive ^b |  |
| COC(=O)C1=C(C)NC(C)=C(C(=O)OC)C1c1c(-c2cc(OC)c(OC)cc2[N+](=O)[O-])nc2sccn12 [Compound 47] |  |  | inactive ^b |  |
| CCOC(=O)C1=C(C)NC(C)=C(C(=O)OCC)C1c1cccc(Oc2ccccc2)c1 [Compound 48, reference compound] | 0.97 |  |  |  |
| C=CCOC(=O)C1=C(C)NC(C)=C(C(=O)OCC=C)C1c1ccc(C(C)(C)C)cc1 [Compound 49, reference compound] | 3.58 |  |  |  |
| C=CCOC(=O)C1=C(C)NC(C)=C(C(=O)OCC=C)C1/C=C/c1ccccc1OC [Compound 50, reference compound] | 1.18 |  |  |  |
| COC(=O)C1=C(C)NC(C)=C(C(=O)OC)C1c1ccccc1[N+](=O)[O-] [nifedipine, reference compound] | 2.58 |  |  | potency increase in nonvascular smooth muscle compared to aortic strips ([1]; GPILSM vs aortic strips): 6 times |
